Drawing on BindingDB's records for doi:10.1021/ml1002508 (2011), this text covers EC50 for one compound.

As usually defined, the pEC50 is −log10 of the EC50, conventionally taken in molar units.

pEC50: −log10 of the molar value.

This assay is described as follows: Agonist activity at androgen receptor expressed in mouse C2C12 cells assessed as osteoblast differentiation after 5 days.

`Cc1c(N[C@@H](c2nnc(-c3ccc(C#N)cc3)o2)[C@H](C)O)ccc(C#N)c1Cl` [2-chloro-4-((1R,2S)-1-(5-(4-cyanophenyl)-1,3,4-oxadiazol-2-yl)-2-hydroxypropylamino)-3-methylbenzonitrile]: the negative-log EC50 (pEC50) is 10.00.
